Source: US10869924B2, “PD-L1 antagonist combination treatments” (MERCK PATENT GMBH, priority 2015, dated 2020)

How the values were obtained:
MC38 tumors = assay: Flow cytometry of tumor-infiltrating lymphocytes from MC38 tumors after treatment (Example 3); format: in vivo, mouse; details: TILs isolated from MC38 tumors after treatment
Source text: Antibodies used for cell surface or intracellular staining were purchased from BD Biosciences or eBioscience. They were rat anti-mouse CD4-PerCP-Cy5.5 (clone RM4-5, BD Biosciences), rat anti-mouse CD8a-APC-H7 (clone 53-6.7, BD Biosciences), rat anti-mouse CD25-PE-Cy7 (clone PC61, BD Biosciences), rat anti-mouse CD45-BV510 (clone 30-F11, BD Biosciences), rat anti-mouse CD90.2-FITC (clone 53-2.1, BD Biosciences), rat anti-mouse Eomes-PE (clone: Dan11mag, eBioscience), rat anti-mouse FoxP3-eFluor450 (clone FJK-16s, eBioscience), and rat anti-mouse NKp46-BV421 or -AF647 (clone 29A1.4, BD Biosciences). Live cells were separated from dead cells using LIVE/DEAD Fixable Blue Dead Cell Stain Kit (Invitrogen). […]
An aliquot of cells was pre-incubated with 10 μg/mL of mouse BD Fc Block (BD Biosciences) for 10 minutes before phenotyping mAbs were added to specifically stain immune cells. […] After removing unbound mAbs, cells were washed twice with FACS staining buffer, fixed in fixative buffer (PBS+2% FBS+1% paraformaldehyde), and stored at 4° C. in the dark until analyzed by flow cytometry. […] Flow cytometry data were acquired using LSR Fortessa (BD Biosciences) and analyzed using FlowJo (TreeStar Inc.).
Results were expressed as mean±SEM. […]
Tumor-infiltrating lymphocytes (TILs) were isolated from MC38 tumors after treatment and analyzed for markers associated with anti-tumor immune response. […]

B16F10 melanoma = assay: Subcutaneous B16F10 melanoma model, avelumab, anti-4-1BB and anti-OX40 (Example 6); format: in vivo, mouse; details: anti-OX40 3 mg/kg, anti-4-1BB 1 mg/kg, avelumab 20 mg/kg, ip, 3 doses 3 to 4 days apart, C57BL/6 mice
Experimental: Two murine models were used to evaluate the therapeutic efficacy of combinatorial treatment of anti-OX40 antibody, anti-4-1 BB and Avelumab. Six (6)- to 8-week old female C57BL/6 mice or Balb/C mice were purchased from the Jackson Laboratories. All animals were housed in a pathogen free vivarium facility at Rinat and experiments were conducted according to the protocols in accordance with the Institutional Animal Care and Use Committee (IACUC) guidelines.
The B16F10 melanoma cell line was purchased from American Type Culture Collection (ATCC). The MC38 colon carcinoma cell line was kindly provided by Dr. Antoni Ribas at University of California, Los Angeles, Calif. Cells were cultured in Dulbecco's Modified Eagle's Medium (DMEM) supplemented with 10% fetal bovine serum (FBS), 2 mM L-glutamine at 37° C. in 5% carbon dioxide (CO2). Cells growing in an exponential growth phase were harvested and used for tumor inoculation.
Therapeutic mouse anti-OX40 antibodies with either the mIgG1 or the mIgG2a isotype (anti-OX40 mIgG1 and anti-OX40 mIgG2a, respectively) were derived from parental clone OX86 in house. Therapeutic mouse anti-mouse 4-1BB antibody (mouse immunoglobulin G1 [mIgG1]), derived from the parental clone MAB9371 (R&D Systems), was prepared in-house. Avelumab was provided by Merck Serono. Isotype control mIgG1 (clone: MOPC-21) and mIgG2a (C1.18.4) was purchased from BioXcell. Human IgG1 was prepared in-house. Anti-OX40 antibody, anti-4-1BB antibody, and avelumab were dosed at 3 mg/kg, 1 mg/kg and 20 mg/kg in the B16F10 model and 1 mg/kg, 1 mg/kg and 10 mg/kg in the MC38 model, respectively, in phosphate buffered saline (PBS) (Life Technologies), and dosed at 0.2 mL per mouse intraperitoneally (ip) for 3 doses 3 to 4 days apart.
C57BL/6 mice were inoculated subcutaneously at the right flank with 0.3×10^6 B16F10 cells in 0.1 mL of PBS. Balb/C mice were inoculated subcutaneously at the right flank with 0.5×10^6 MC38 cells in 0.1 mL of PBS. When tumors reached target size, mice were randomized into treatment groups. Treatment was started on the same day as randomization. Tumor size was measured twice weekly in 2 dimensions using a caliper, and the volume was calculated in cubic millimeters using the formula: V=0.5 L×W^2 where L is the longest diameter of the tumor and W is the diameter perpendicular to L. Body weight was recorded weekly.
Results are summarized in Table 9 (B16F10 melanoma) and Table 10 (MC38 colon carcinoma) below (mean tumor size±SEM). Statistical analyses were performed using GraphPad Prism 6.0. 2-way ANOVA was applied to compare the statistical differences among multiple groups relative to the isotype control or other treatment groups. P<0.05 was considered as significant difference. Tumor measurements are in mm^3.

Substance: Avelumab: fully human mAb of the IgG1 isotype that specifically targets and blocks PD-L1
- ratio of CD8+ T cells/regulatory T cell (Treg) (MC38 tumors; FIG. 2): 2.5
- T-cell frequency (of CD45+ cells) in tumors (MC38 tumors; average, FIG. 1): 36%
- Mean Tumor Size (B16F10 melanoma; Day 12 post-tumor inoculation (start of treatment)): 77 mm^3
- Mean Tumor Size (B16F10 melanoma; Day 15 post-tumor inoculation): 236 mm^3
- Mean Tumor Size (B16F10 melanoma; Day 18 post-tumor inoculation): 396 mm^3
- Mean Tumor Size (B16F10 melanoma; Day 22 post-tumor inoculation): 750 mm^3
- Mean Tumor Size (B16F10 melanoma; Day 25 post-tumor inoculation): 1291 mm^3
- Mean Tumor Size (B16F10 melanoma; Day 29 post-tumor inoculation): 2159 mm^3
- Mean Tumor Size (B16F10 melanoma; Day 32 post-tumor inoculation): 2352 mm^3
- Mean Tumor Size (B16F10 melanoma; Day 32 post-tumor inoculation, listed as avelumab): 2352±264 mm^3
